One series can be described thus: circular dichroism. As to conditions: phosphate buffer (PB); pH 7.2; 20 °C; 10-50 uM. Background: Circular dichroism is widely used to follow secondary structure.
In the next series the test system is HCT116 p53-/- cells. Description: Cell viability assay (CCK8), HCT116 p53-/-. The class given is cell-based, human. As to conditions: concentrations of up to 50 μM, 8 h serum-free then 64 h with serum. The protocol: (§1) and three independent experiments were performed. […]
(§2) As an additional positive control, we
(§3) Tecan Infinite M1000 plate reader.
(§4) additional incubation for 64 hours. […]

The next series concerns HCT116 p53+/+ cells. The series is described as follows: Cell viability assay (CCK8), HCT116 p53+/+. The following applies: concentrations of up to 50 μM, 8 h serum-free then 64 h with serum. The class given is cell-based, human. The protocol: as §1, §3, §4
The nature of series [1]: Circular dichroism spectroscopy, helical content. The class given is physicochemical. As to conditions: CD, PB pH 7.2, 10-50 μM peptide, 20 °C. The method, then: Circular Dichroism (CD) Spectroscopy.
(§5) from 10-50 μM. […] The spectra were […]

A further series deals with HCT116 cells. The series is described as follows: Cellular uptake by confocal microscopy. The series is classed as cell-based, human. As to conditions: 20 μM peptide N-terminally conjugated to FITC via aminocaproic acid, HCT116 p53+/+ cells, 4 h, fixed, DAPI. The method, then:
Although cationicity is not a universal molecular signature of cell-penetrating peptides, it plays a critical role in the ability of stapled peptides to traverse the cell membrane to exert biological activity.[10],[22],[28]
Cellular uptake of DTCPMI. A fluorescent FITC moiety was appended via an aminocaproic acid to the N- […]
and allowed to grow overnight. Cells were then incubated with 20 µM FITC-DTCPMI for 4 h. Cells were washed with Dulbecco's phosphate buffered saline, fixed with 4% (wt/vol) paraformaldehyde, finally incubated by DAPI to stain the cell nucleus. Imaged using an LSM 510 Zeiss Axiovert 200M (v4.0) confocal microscope. Images were analyzed using an LSM image browser. […]
μM) in serum-free media for 8 hours. The cells were lysed (20 mM Tris-HCl pH 8.0, 0.8 % SDS, 1 mM PMSF, 1 U mL-1 benzonase nuclease) and the crude lysates were clarified by brief centrifugation and total protein concentration was determined by using the Pierce BCA protein assay. Aliquots containing 5 μg of total protein were run on 4-12% Bis-Tris polyacrylamide gels (Invitrogen). Proteins were detected by chemiluminescence reagent (Perkin Elmer) using antibodies specific for p53 (Santa Cruz Biotechnology), MDM2 (Santa Cruz Biotechnology), p21 (Merck Millipore), and β-actin (Sigma-Aldrich). […]

Series [2] deals with T1, synthetic 24–108MDMX (p53-binding domain) (Homo sapiens, UniProt O15151).
T1 construct: made in house; host or cells: total chemical synthesis (native chemical ligation of 24-75 thioester with 76-108); no expression host
T1 sequence (O15151 24-108): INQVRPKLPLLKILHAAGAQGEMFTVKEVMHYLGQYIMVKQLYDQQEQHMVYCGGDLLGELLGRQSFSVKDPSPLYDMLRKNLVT
Description: SPR-based competition binding assay on 15–29p53-immobilized CM5 chip, MDMX. The following applies: 25 °C, MDMX at 100 nM, 10 mM HEPES, 150 mM NaCl, 0.005% P20, pH 7.4, free MDMX quantified on 15–29p53 chip, two replicates, three independent experiments. The protocol:
and three independent experiments were performed.
Fluorescence polarization (FP).
as §2
Tecan Infinite M1000 plate reader. […]
additional incubation for 64 hours.
Circular Dichroism (CD) Spectroscopy. […]
as §5
of each peptide was calculated as reported previously. 12
Stability in GSH. […] RP-

Three molecules from paper PMC6357863, “Dithiocarbamate-inspired side chain stapling chemistry for peptide drug design” (Chemical Science, 2018) can be followed below.

The term Kd denotes the concentration at which binding is half-saturated. Higher therefore signals a looser complex.

On to `CC(=O)N[C@H](C(=O)N[C@@H](CO)C(=O)N[C@@H](Cc1ccccc1)C(=O)N[C@@H](CCCCN)C(=O)N[C@@H](CCC(N)=O)C(=O)N[C@@H](Cc1ccc(O)cc1)C(=O)N[C@@H](Cc1c[nH]c2ccccc12)C(=O)N[C@@H](CS)C(=O)N[C@@H](CC(C)C)C(=O)N[C@@H](CC(C)C)C(=O)N[C@@H](CO)C(=O)N[C@@H](CCCNC(=N)N)C(N)=O)[C@@H](C)O` [^DTCPMI Ctrl.], for which the helicity in the series “circular dichroism” was 16.6%. Moreover, the “anti-proliferative activity against HCT116 p53-/-” value in the series on HCT116 p53-/- cells is reported as “no anti-proliferative activity”. The “anti-proliferative activity against HCT116 p53+/+” value in the series on HCT116 p53+/+ cells was “no anti-proliferative activity”. Further, the “α-Helix (%)” value in series [1] is reported as 16.6%.

In “circular dichroism”, `CC(=O)N[C@H](C(=O)N[C@@H](CO)C(=O)N[C@@H](Cc1ccccc1)C(=O)N[C@H]1CCCCNC(=S)SC[C@@H](C(=O)N[C@@H](CC(C)C)C(=O)N[C@@H](CC(C)C)C(=O)N[C@@H](CO)C(=O)N[C@@H](CCCNC(=N)N)C(N)=O)NC(=O)[C@H](Cc2c[nH]c3ccccc23)NC(=O)[C@H](Cc2ccc(O)cc2)NC(=O)[C@H](CCC(N)=O)NC1=O)[C@@H](C)O` [^DTCPMI] showed a helicity of 62.2%. Also, the “intracellular localization (confocal microscopy)” value with HCT116 cells is “diffused intracellular localization”.

Molecule `CC(=O)N[C@H]1CCCCNC(=S)SC[C@@H](C(=O)N[C@@H](Cc2ccc(O)cc2)C(=O)N[C@@H](Cc2c[nH]c3ccccc23)C(=O)N[C@@H](CC(N)=O)C(=O)N[C@@H](CC(C)C)C(=O)N[C@@H](CC(C)C)C(=O)N[C@@H](CO)C(=O)N2CCC[C@H]2C(N)=O)NC(=O)[C@H](C)NC(=O)[C@H](Cc2ccccc2)NC(=O)[C@H](CO)NC1=O` [PMI(1,5)-a] displayed a helicity in the series “circular dichroism” of 6.5%. Moreover, the dissociation constant (Kd) in series [2] was greater than 500 nM.
